Reference: patent publication US20240325398A1, “COMBINATION THERAPIES” (Infinity Pharmaceuticals, Inc., priority 2014, published 2024)

Tests used:
[1] = tested on: CDK1, CDK2, CDK4, CDK7 and CDK9; conditions: in words; cited from earlier work
HH = assay: Combination study, ATPLite 72 h, dose matrix (Synergy Score, CI50); type: cell-based; conditions: combination with Compound 1
Procedure: The method is described as follows.
Additive effect is CI=1.0. […] Antagonistic effect is CI>1.0.
The Synergy Score is calculated as: […]

HBL-1 = assay: as above; conditions: combination with Compound 1, 72 h
OCI-Ly3 = assay: as above; conditions: combination with Compound 1; OCI-Ly3; 72 h
U-2932 = assay: as above; conditions: combination with Compound 1, 72 h
Procedure: (§1) Cells are thawed from a liquid nitrogen preserved state. Once cells have been expanded and divide at their expected doubling times, screening begins. Cells are seeded in growth media in either black 1536-well or 384-well tissue culture treated plates. Cells are then equilibrated in assay plates via centrifugation and placed in incubators attached to the Dosing Modules at 37° C. for 24 hours before treatment. […] These Tzero (To) plates are read using ultra-sensitive luminescence on Envision plate readers (Perkin Elmer). Treated assay plates are incubated with compound for 72 hours. After 72 hours, plates are developed for endpoint analysis using ATPLite. All data points are collected via automated processes, quality controlled and analyzed using Zalicus software.
(§2) where T is treated cell count and V is untreated (vehicle) cell count (at 72 hours). I ranges from 0% (when T=V) to 100% (when T=0). […] The measure of effect in the experiment can be the inhibition of cellular response relative to the untreated level (vehicle alone). […] The inhibition ranges from 0% at the untreated level to 100% when T=0. Inhibition levels are negative for agents that actually increase levels. Other effect measures, such as an activity ratio r=T/V may be more appropriate for some assays. When activity ratios (e.g, fold increase over stimulated control) are being used, the effect can be measured using an induction 1=ln(T/V). With this definition, all effect expressions are the same as for inhibition.
(§3) Growth Inhibition (GI) is used as a measure of cell viability. […] A GI reading of 100% represents complete growth inhibition—T72 compound-treated and T0 vehicle signals are matched. […] A GI reading of 200% represents complete death of all cells in the culture well. Compounds reaching an activity plateau of GI 200% are considered cytotoxic. GI is calculated by applying the following test and equation:
(§4) Combination analysis data were collected in a 6×6 dose matrix. Synergy is calculated by comparing a combination's response to those of its single compound, against the drug-with-itself dose-additive reference model. Deviations from dose additivity may be assessed visually on an isobologram or numerically with a Combination Index (CI). […] Additive effect is CI=1.0. […] Antagonistic effect is CI>1.0.
(§5) To measure combination effects in excess of Loewe additivity, a scalar measure to characterize the strength of synergistic interaction termed the Synergy Score is devised. The Synergy Score is calculated as:
(§6) The fractional inhibition for each component agent and combination point in the matrix is calculated relative to the median of all vehicle-treated control wells. The Synergy Score equation integrates the experimentally-observed activity volume at each point in the matrix in excess of a model surface numerically derived from the activity of the component agents using the Loewe model for additivity. Additional terms in the Synergy Score equation (above) are used to normalize for various dilution factors used for individual agents and to allow for comparison of synergy scores across an entire experiment. The inclusion of positive inhibition gating or an Idata multiplier removes noise near the zero effect level, and biases results for synergistic interactions at that occur at high activity levels.
(§7) Loewe Volume (Loewe Vol) is used to assess the overall magnitude of the combination interaction in excess of the Loewe additivity model. Loewe Volume is particularly useful when distinguishing synergistic increases in a phenotypic activity (positive Loewe Volume) versus synergistic antagonisms (negative Loewe Volume). […] This model defines additivity as a non-synergistic combination interaction where the combination dose matrix surface should be indistinguishable from either drug crossed with itself. The calculation for Loewe additivity is:

TMD8 = assay: as above; conditions: combination with Compound 1; TMD8; 72 h
Procedure: as §1, §2, §3, §4
The isobologram was drawn by identifying the locus of concentrations that correspond to crossing the indicated inhibition level. This is done by finding the crossing point for each single agent concentration in a dose matrix across the concentrations of the other single agent. Practically, each vertical concentration CY is held fixed while a bisection algorithm is used to identify the horizontal concentration CX in combination with that vertical dose that gives the chosen effect level in the response surface Z(CX,CY). These concentrations are then connected by linear interpolation to generate the isobologram display. For synergistic interactions, the isobologram contour fall below the additivity threshold and approaches the origin, and an antagonistic interaction would lie above the additivity threshold. The error bars represent the uncertainty arising from the individual data points used to generate the isobologram. The uncertainty for each crossing point is estimated from the response errors using bisection to find the concentrations where Z−αZ(CX,CY) and Z+σZ(CX,CY) cross Icut, where αZ is the standard deviation of the residual error on the effect scale.
as §5
The fractional inhibition for each component agent and combination point in the matrix is calculated relative to the median of all vehicle-treated control wells.

OCI-Ly7 = assay: as above; conditions: combination with Compound 1, 72 h
SU-DHL-4-epst = assay: as above; conditions: combination with Compound 1, 72 h
DOHH-2 = assay: as above; conditions: combination with Compound 1, 72 h
Farage = assay: as above; conditions: combination with Compound 1; Farage; 72 h
SU-DHL-10-epst = assay: as above; conditions: combination with Compound 1, 72 h
Procedure: as §1
The measure of effect in the experiment can be the inhibition of cellular response relative to the untreated level (vehicle alone). […] The inhibition ranges from 0% at the untreated level to 100% when T=0. Inhibition levels are negative for agents that actually increase levels.
as §3, §4, §5, §6, §7

RL = assay: as above; conditions: combination with Compound 1, 72 h
KARPAS-422 = assay: as above; conditions: combination with Compound 1, 72 h
Procedure: as §1, §2, §3, §4, §5, §6
Loewe Volume (Loewe Vol) is used to assess the overall magnitude of the combination interaction in excess of the Loewe additivity model. Loewe Volume is particularly useful when distinguishing synergistic increases in a phenotypic activity (positive Loewe Volume) versus synergistic antagonisms (negative Loewe Volume). […] This model defines additivity as a non-synergistic combination interaction where the combination dose matrix surface should be indistinguishable from either drug crossed with itself.

WSU-NHL = assay: as above; conditions: combination with Compound 1, 72 h
KARPAS-299 = assay: as above; conditions: combination with Compound 1
GRANTA-519 = assay: as above; conditions: combination with Compound 1
Jeko-1 = assay: as above; conditions: combination with Compound 1
Mino = assay: as above; conditions: combination with Compound 1
NCI-H929 = assay: as above; conditions: combination with Compound 1
[2] = as above; conditions: combination with Compound 1; OPM-2
OMP-2 = assay: as above; conditions: combination with Compound 1; OPM-2
RPMI-8226 = assay: as above; conditions: combination with Compound 1

CC1(C)/C(=C2/C(=O)Nc3ccc(S(N)(=O)=O)cc32)Nc2ccccc21 [ZK-304709, (Z)-3,3-dimethyl-2′-oxo-[2,3′-biindolinylidene]-5′-sulfonamide]
IC50 values, CDK1, CDK2, CDK4, CDK7 and CDK9 [1]: nanomolar range

CCCCCCCCCCCCCCCCCCOP(=O)([O-])OC1CC[N+](C)(C)CC1 [perifosine, 1,1-dimethylpiperidinium-4-yl octadecyl phosphate]
CI50 growth inhibition (HH): W (W=≥1) | CI50 inhibition (HH): S (S=0.01 to <0.5) | Synergy Score growth inhibition (HH): A3 (A3=>3) | Synergy Score inhibition (HH): A2 (A2=1 to <3) | CI50 growth inhibition (HBL-1): U (U=0.7 to <1) | CI50 inhibition (HBL-1): W (W=≥1) | Synergy Score growth inhibition (HBL-1): A3 (A3=>3) | Synergy Score inhibition (HBL-1): A1 (A1=0.0001 to <1) | CI50 growth inhibition (OCI-Ly3): W (W=≥1) | CI50 inhibition (OCI-Ly3): W (W=≥1) | Synergy Score growth inhibition (OCI-Ly3): A1 (A1=0.0001 to <1) | Synergy Score inhibition (OCI-Ly3): A1 (A1=0.0001 to <1) | CI50 growth inhibition (U-2932): W (W=≥1) | CI50 inhibition (U-2932): W (W=≥1) | Synergy Score growth inhibition (U-2932): A1 (A1=0.0001 to <1) | Synergy Score inhibition (U-2932): A1 (A1=0.0001 to <1) | CI50 growth inhibition (TMD8): T (T=0.5 to <0.7) | CI50 inhibition (TMD8): T (T=0.5 to <0.7) | Synergy Score growth inhibition (TMD8): A2 (A2=1 to <3) | Synergy Score inhibition (TMD8): A2 (A2=1 to <3) | CI50 growth inhibition (OCI-Ly7): U (U=0.7 to <1) | CI50 inhibition (OCI-Ly7): W (W=≥1) | Synergy Score growth inhibition (OCI-Ly7): A2 (A2=1 to <3) | Synergy Score inhibition (OCI-Ly7): A1 (A1=0.0001 to <1) | CI50 growth inhibition (SU-DHL-4-epst): S (S=0.01 to <0.5) | CI50 inhibition (SU-DHL-4-epst): U (U=0.7 to <1) | Synergy Score growth inhibition (SU-DHL-4-epst): A2 (A2=1 to <3) | Synergy Score inhibition (SU-DHL-4-epst): A1 (A1=0.0001 to <1) | CI50 growth inhibition (DOHH-2): T (T=0.5 to <0.7) | CI50 inhibition (DOHH-2): U (U=0.7 to <1) | Synergy Score growth inhibition (DOHH-2): A3 (A3=>3) | Synergy Score inhibition (DOHH-2): A2 (A2=1 to <3) | CI50 growth inhibition (Farage): S (S=0.01 to <0.5) | CI50 inhibition (Farage): T (T=0.5 to <0.7) | Synergy Score growth inhibition (Farage): A3 (A3=>3) | Synergy Score inhibition (Farage): A2 (A2=1 to <3) | CI50 growth inhibition (SU-DHL-10-epst): T (T=0.5 to <0.7) | CI50 inhibition (SU-DHL-10-epst): U (U=0.7 to <1) | Synergy Score growth inhibition (SU-DHL-10-epst): A2 (A2=1 to <3) | Synergy Score inhibition (SU-DHL-10-epst): A2 (A2=1 to <3) | CI50 growth inhibition (RL): W (W=≥1) | CI50 inhibition (RL): W (W=≥1) | Synergy Score growth inhibition (RL): A1 (A1=0.0001 to <1) | Synergy Score inhibition (RL): A1 (A1=0.0001 to <1) | CI50 growth inhibition (KARPAS-422): W (W=≥1) | CI50 inhibition (KARPAS-422): U (U=0.7 to <1) | Synergy Score growth inhibition (KARPAS-422): A1 (A1=0.0001 to <1) | Synergy Score inhibition (KARPAS-422): A1 (A1=0.0001 to <1) | CI50 growth inhibition (WSU-NHL): U (U=0.7 to <1) | CI50 inhibition (WSU-NHL): T (T=0.5 to <0.7) | Synergy Score growth inhibition (WSU-NHL): A3 (A3=>3) | Synergy Score inhibition (WSU-NHL): A2 (A2=1 to <3) | CI50 growth inhibition (KARPAS-299): W (W=≥1) | CI50 inhibition (KARPAS-299): W (W=≥1) | Synergy Score growth inhibition (KARPAS-299): A1 (A1=0.0001 to <1) | Synergy Score inhibition (KARPAS-299): A1 (A1=0.0001 to <1) | CI50 growth inhibition (GRANTA-519): S (S=0.01 to <0.5) | CI50 inhibition (GRANTA-519): W (W=≥1) | Synergy Score growth inhibition (GRANTA-519): A2 (A2=1 to <3) | Synergy Score inhibition (GRANTA-519): A1 (A1=0.0001 to <1) | CI50 growth inhibition (Jeko-1): U (U=0.7 to <1) | CI50 inhibition (Jeko-1): W (W=≥1) | Synergy Score growth inhibition (Jeko-1): A1 (A1=0.0001 to <1) | Synergy Score inhibition (Jeko-1): A1 (A1=0.0001 to <1) | CI50 growth inhibition (Mino): U (U=0.7 to <1) | CI50 inhibition (Mino): W (W=≥1) | Synergy Score growth inhibition (Mino): A2 (A2=1 to <3) | Synergy Score inhibition (Mino): A1 (A1=0.0001 to <1) | CI50 growth inhibition (NCI-H929): U (U=0.7 to <1) | CI50 inhibition (NCI-H929): W (W=≥1) | Synergy Score growth inhibition (NCI-H929): A2 (A2=1 to <3) | Synergy Score inhibition (NCI-H929): A1 (A1=0.0001 to <1) | CI50 growth inhibition [2]: U (U=0.7 to <1) | CI50 inhibition (OMP-2): W (W=≥1) | Synergy Score growth inhibition (OMP-2): A2 (A2=1 to <3) | Synergy Score inhibition (OMP-2): A1 (A1=0.0001 to <1) | CI50 growth inhibition (RPMI-8226): T (T=0.5 to <0.7) | CI50 inhibition (RPMI-8226): U (U=0.7 to <1) | Synergy Score growth inhibition (RPMI-8226): A3 (A3=>3) | Synergy Score inhibition (RPMI-8226): A1 (A1=0.0001 to <1)
